Experimental data reported in patent publication US10905680B2, “Methods of treatment for cholestatic and fibrotic diseases” (Genfit, priority 2016, dated 2021).
pIC50: −log10 of the molar value.

What was measured:
[1] = system: human primary hepatic stellate cells (hHSC); assay: TGFβ1-induced expression of α-SMA protein in human HSC (ELISA); type: cell-based; conditions: TGFβ1 1 ng/ml, 48 hours
Procedure: Serum-deprived HSC were preincubated for 1 hour with NTZ (A) or TZ (B) before the activation with the profibrogenic cytokine TGFβ1 (1 ng/ml). After 48 hours of incubation, the expression of α-SMA was measured by ELISA. The obtained values were transformed into percentage inhibition over TGFβ1 control. Data are presented as mean (triplicates)±standard deviation (SD). Statistical analyses were performed by one-way ANOVA followed by Bonferroni post-hoc tests, using Sigma Plot 11.0 software. [*: p<0.05; **: p<0.01; ***: p<0.001 (comparison versus TGFβ1 1 ng/mL group)]. The curve fitting and the calculation of half maximal inhibitory concentration (IC50) were performed with XLFit software 5.3.1.3. The human primary hepatic stellate cells (hHSC) (Innoprot) were cultured in STeCM medium (ScienCell cat #5301) that was supplemented with 2% fetal bovine serum (FBS, ScienCell cat #0010), 1% penicillin/streptomycin (ScienCell cat #0503) and stellate cell growth supplement (SteCGS; ScienCell cat #5352). Cell culture flasks were coated with Poly-L Lysine (Sigma cat # P4707) for a better adherence. The human primary hepatic stellate cells (hHSC) (Innoprot) were cultured under standard conditions, as described above. The cells were subsequently plated at a density of 7×10^4 cells/well into 24-well plates for gene expression studies, and at a density of 2×10^4 cells/well into 96-well plates for the measure of α-SMA by ELISA. The next day, cell culture medium was removed, and cells were washed with PBS (Invitrogen cat #14190). hHSC were deprived for 24 hours in serum-free and SteCGS-free medium. For the treatments with NTZ or TZ, the serum-deprived hHSC were preincubated for 1 hour with the compounds followed by the addition of the profibrogenic stimuli TGFβ1 (PeproTech cat #100-21, 1 ng/mL) in serum-free and SteCGS-free medium for an additional 24 or 48 hour period (the timepoint is indicated in the figure legends). […] The level of α-SMA was measured using a Sandwich ELISA. […]

[2] = system: Normal Human Cardiac Fibroblasts (ventricle) (NHCF-V); assay: TGFβ1-induced expression of α-SMA protein in human cardiac fibroblasts (ELISA); type: cell-based; conditions: concentration of 1 μM; TGFβ1 3 ng/ml, 48 hours
Procedure: NTZ (A) or TZ (B) were added to serum-deprived cardiac fibroblasts (NHCF) 1 hour before the activation with TGFβ1 (3 ng/ml). After 48 hours of incubation, the expression of α-SMA was measured by ELISA. The obtained values were transformed into percentage inhibition over TGFβ1 control. Data are presented as mean (triplicates)±standard deviation (SD). Statistical analyses were performed by one-way ANOVA followed by Bonferroni post-hoc tests, using Sigma Plot 11.0 software. [*: p<0.05; **: p<0.01; ***: p<0.001 (comparison versus TGFβ1 3 ng/mL group)].
The Normal Human Cardiac Fibroblasts (ventricle) (NHCF-V) (Lonza) were isolated from normal adult heart tissue. Cells were cultured in Fibroblast Basal Medium (FBM) (Lonza cat # CC-3131) that was supplemented with FGM™-3 BulletKit™ kit (Lonza cat # CC-4525). The complete medium contains 10% fetal bovine serum. For the activation experiments with TGFβ1, the NHCF-V were plated at a density of 6×10^3 cells per well in 96-well plates. The next day, cell-culture medium was removed, and cells were washed with PBS (Invitrogen cat #14190). NHCF were deprived for 24 hours in serum-free, insulin-free and rhFGF-B-free medium. […]
The level of α-SMA was measured using a Sandwich ELISA. […]

O=C(Nc1ncc([N+](=O)[O-])s1)c1ccccc1O [TZ, 2-hydroxy-N-(5-nitro-2-thiazolyl)benzamide]
pIC50 ([1]; Homo sapiens, 1 h preincubation, read-out: IC50 (level of α-SMA in TGFβ-induced HSCs)): 5.52 to 7.00 | level of α-SMA in TGFβ-induced HSCs [1]: profile similar to the parent drug | antifibrotic effects (α-SMA) in normal human cardiac fibroblasts [2]: significant antifibrotic effects
